Measured values published in patent publication US11107993B2, “Organic compound and organic electroluminescent element comprising same” (MATERIAL SCIENCE CO., LTD., priority 2015, dated 2021).

Assay: Evaluation of solubility of organic compound in hexane, toluene and dichloromethane
Assay type: physicochemical
Conditions: room temperature; for solubility compared with Compound 9: summary of Table 3, toluene, dichloromethane
Method: Evaluation of Solubility of Organic Compound
The solubility in hexane, toluene and dichloromethane was measured for the compounds of Synthesis Example 9, and Comparative Synthesis Examples 2 and 3.

Row | SMILES | solubility in hexane | solubility compared with Compound 9
1 | Cc1ccc(C)c(N(c2cc(C(C)(C)C)ccc2C)c2ccc3ccc4c(N(c5cc(C)ccc5C)c5cc(C(C)(C)C)ccc5C)ccc5ccc2c3c54)c1 [Compound 1-B] | Insoluble | significantly lower solubility than Compound 9
2 | CCc1cc(N(c2cc(C)ccc2C)c2cc(C(C)(C)C)ccc2C)c2ccc3c(CC)cc(N(c4cc(C)ccc4C)c4cc(C(C)(C)C)ccc4C)c4ccc1c2c34 [Compound 1-C] | Insoluble | significantly lower solubility than Compound 9
